pIC50: −log10 of the molar value. Entries after “also recorded” stand apart in the source; their conditions may differ. Peptide text beside a SMILES is read from it.
Experiments:
ACE [1] = assay: ACE inhibition after simulated gastrointestinal digestion; format: in vitro ADME; settings: simulated gastric fluid (pepsin, pH 2.0) 90 min then simulated intestinal fluid (trypsin, bile salt, pH 6.8) 180 min, 37 °C, peptide 1 mg/mL; read-out ACE IC50 before/after
Method: As per the same procedure described by Jimsheena and Gowda, the inhibition of ACE was evaluated by comparing the quantity of produced hippuric acid before and after the addition of the peptides. The IC50 value was calculated from the regression equation of ACE inhibition percentage for different concentrations of the sample and defined as the concentration of sample inhibiting ACE activity by 50%.
Mixtures of trypsin (0.45 g), pig bile salt (3 g) and NaHCO3 (6.25 g) dissolved in 100 mL of dH2O (pH 6.8) were used to simulate the intestinal fluid, whereas pepsin (40 mg) and NaCl (0.877 g) dissolved in 100 mL of dH2O (pH 2.0) were used to simulate the gastric fluid (Sun et al., 2021). Peptide solutions (dissolved in ultrapure water, 1 mg/mL) were incubated at 37 °C in a stirring bath (140 r/min) for 15 min, and then the simulated gastric fluid was added (gastric fluid: peptide solution = 1: 10 v/v), and the mixture was further incubated at 37 °C (140 r/min) for 90 min. Then, the reaction solution was adjusted to pH 6.8 with Na2HPO4. The simulated intestinal fluid (the fluid: peptide solution = 1: 10, v/v) was added, and the mixture was stirred (140 r/min) at 37 °C for 180 min. All reaction solutions were heated at 100 °C for 8 min to inactivate the enzymes. The ACE inhibition activities of the peptides before and after digestion were separately determined to evaluate their stability.

[2] = proline-rich literature peptides; cited from earlier work
Source text: ACE-inhibitory peptides should have sufficient resistance to digestion by proteases existing in the gastrointestinal tract to exert antihypertension activity in the body.

ACE [3] = system: ACE; parameters: method as in 2 sources, ref 34, 35 = [34]; PMID 32220144; doi:10.1111/1750-3841.15115; 34. Zheng Y.J. Wang X. Zhuang Y.L. Li Y. Shi P.Q. Tian H.L. Li X.T. Chen X. Isolation of novel ACE-inhibitory peptide from naked oat globulin hydrolysates in silico approach: Molecular docking, in viv || [35]; PMID 29606478; doi:10.1016/j.foodchem.2018.02.107; 35. Tu M. Wang C. Chen C. Zhang R. Liu H. Lu W. Jiang L. Du M. Identification of a novel ACE-inhibitory peptide from casein and evaluation of the inhibitory mechanisms Food Chem. 2018 256 98 104 10.10 ||| ref 20 = [20]; doi:10.1016/j.jff.2016.11.021; 20. Zheng Y.J. Li Y. Zhang Y.L. Ruan X.H. Zhang R.G. Purification, characterization, synthesis, in vivo ACE inhibition and in vitro antihypertensive activity of bioactive peptides derived from palm ke; settings: cited from earlier work; for pIC50: literature peptides, read-out: IC50 (ACE inhibition)

| Molecule | stability during simulated gastrointestinal digestion (ACE [1]) | stability during gastrointestinal digestion [2] | inhibition mode towards ACE (ACE [3]) | pIC50 (ACE [3]) |
| --- | --- | --- | --- | --- |
| CC(C)C[C@H](NC(=O)[C@H](CC(C)C)NC(=O)[C@@H]1CCCN1)C(=O)N[C@@H](CCCCN)C(=O)O [PLLK, Pro-Leu-Leu-Lys] (H-PLLK-OH) | resistant; also recorded: relatively stable; also recorded: relatively high stability | – | – | – |
| CSCC[C@H](NC(=O)[C@@H]1CCCN1C(=O)[C@@H]1CCCN1)C(=O)N[C@@H](Cc1c[nH]c2ccccc12)C(=O)N1CCC[C@H]1C(=O)N[C@@H](Cc1ccccc1)C(=O)N[C@H](C(=O)O)C(C)C [PPMWPFV, Pro-Pro-Met-Trp-Pro-Phe-Val] (H-PPMWPFV-OH) | resistant; also recorded: relatively stable; also recorded: relatively high stability | – | – | – |
| ELHPQ [proline-rich peptide identified in canary seeds] | – | excellent stability | – | – |
| KPVPR [proline-rich peptide identified in canary seeds] | – | excellent stability | – | – |
| LHPQ [proline-rich peptide identified in canary seeds] | – | excellent stability | – | – |
| NMAINPSKENLCSTFCK | – | – | a competitive inhibitor of ACE | 3.89 |
| SSYYPFK | – | excellent stability | a competitive inhibitor | 4.04 |
